Experimental data: patent publication US10723730B2, “Solid forms of a selective CDK4/6 inhibitor” (PFIZER INC., priority 2013, dated 2020)

Tests used:
[1] = small-scale crystallization studies; assay type: physicochemical; conditions: 50 mg/mL, 10 mg scale, warmed to reflux
Protocol: A series of small-scale crystallization experiments was run to identify a potential recrystallization solvent system as well as to assess the impact of solvent on the shape of the free base primary particles isolated. An initial set of 14 screening studies were run on a 10 mg scale using sealed vials and an external heat source to warm the 50 mg/mL samples up to reflux temperature. Visual observation identified the samples that went into solution, and photomicroscopy was used to characterize the particles produced.

[2] = kinetic solubility measurements (dissolution temperature); assay type: physicochemical; conditions: 25 mg/mL, max 110° C.
Protocol: In an initial room temperature solubility screening study, a total of 23 solvents were screened. […] Subsequent targeted higher temperature solubility studies were conducted.

[3] = UPLC/MS testing of the saturated solution; assay type: physicochemical; conditions: saturated solution from experiments #3 (NMP) and #11 (10% n-BuOH/NMP) of Table 6
[4] = particle size analysis by laser diffraction; assay type: physicochemical
Protocol: Particle sizes for the recrystallized materials were assessed using laser diffraction methods. Laser diffraction is recognized by standards and guidance agencies including ISO and ASTM and is widely used to determine particle size distributions. In conducting the assessment, the sample is passed through a laser beam which results in laser light scattered at a range of angles. Detectors placed at fixed angles measure the intensity of light scattered at that position. A mathematical model (Mie or Fraunhoffer Theory) is then applied to generate a particle size distribution.
The particle size was analyzed using the laser diffraction (or small angle light scattering) technique by dispersing the dry sample powder with compressed air. Specifically, the particle size distribution was analyzed using the Sympatec HELOS RODOS system equipped with a Vibri dry powder feeder. The powder sample was dispersed with a dispersion pressure of 0.5 bar. In some instances, an Aspiros micro-dosing device was used, and the powder sample was dispersed with a dispersion pressure of 0.2 bar. A suitable lens was selected to cover the particle size range of each sample.

[5] = MASS (Material Adhesion Screen for Sticking) Punch; assay type: physicochemical; conditions: 10% API in standard blend (89.75% Avicel PH102, 0.25% magnesium stearate); up to 100 compressions
Excerpt: The MASS (Material Adhesion Screen for Sticking) Punch was developed in-house to quantitatively assess the sticking propensity of tablet formulations by weighing the amount of adhered powder on removable punch tip after a series of compressions. This test enables formulators to objectively and quickly evaluate the risk of punch sticking during drug product development and troubleshoot sticking observed during clinical tablet manufacturing. To prepare the sample for MASS Punch testing, 10 g of API was diluted in a lightly lubricated standard blend (10% API, 89.75% Avicel PH102 and 0.25% magnesium stearate) and bottle blended (500 mL amber glass bottle) for 500 rotations. The weight of powder adhered to the removable punch tip (½″ round flat faced) was assessed using a microbalance periodically up to 100 compressions of ˜250 mgW tablets at a target solid fraction of 0.85.

[6] = physical properties of free base isolated from standard salt break process; assay type: physicochemical; conditions: free base isolated directly from a standard salt break process
Excerpt: As punch sticking is related to API surface area, API particle size control is critical for minimizing sticking during drug product manufacturing. […] Free base API with similarly poor physical properties was produced by free basing of the existing isethionate salt API or by neutralization of the in situ salt formed in the final step of the API synthesis. In either process, small API primary particles were produced due to the rapid crystallization caused by the dramatic change in solubility with adjustment of the pH.

[7] = free base prepared by traditional salt break procedure; cited from earlier work

Results of recrystallization ([1]; Chlorobenzene): small irregular shaped particles
Results of recrystallization ([1]; Cyclopentylmethyl ether): did not dissolve
Results of recrystallization ([1]; DMF): small needle shaped particles
Results of recrystallization ([1]; Mesitylene): small needle shaped particles
Results of recrystallization ([1]; NMP): small irregular shaped particles
Results of recrystallization ([1]; Propylene glycol): small irregular shaped particles
Results of recrystallization ([1]; Pyridine): small lathe shaped particles
Results of recrystallization ([1]; Sulfolane): small irregular shaped particles
Results of recrystallization ([1]; Toluene): did not dissolve
Results of recrystallization ([1]; Trifluorotoluene): did not dissolve
Results of recrystallization ([1]; m-Xylene): small/medium tomahawk shaped particles
Results of recrystallization ([1]; n-Butanol): did not dissolve
Results of recrystallization ([1]; n-Butyl Acetate): did not dissolve
Dissolution Temp. ([2]; 1:1:8 propylene glycol/n-BuOH/anisole (v/v)): 91.2 °C
Dissolution Temp. ([2]; 2:1:7 propylene glycol/n-BuOH/anisole (v/v)): 84.1 °C
Dissolution Temp. ([2]; 10% 1,4-butanediol/anisole (v/v)): 109.8 °C
Dissolution Temp. ([2]; 10% n-BuOH/Anisole (v/v)): >110° ° C.
Dissolution Temp. ([2]; 10% n-BuOH/NMP (v/v)): 103.7 °C
Dissolution Temp. ([2]; 20% n-BuOH/Anisole (v/v)): 109.7 °C
Dissolution Temp. ([2]; 25% 1,4-butanediol/anisole (v/v)): 104.8 °C
Dissolution Temp. ([2]; 25% n-BuOH/NMP (v/v)): >110° ° C.
Dissolution Temp. ([2]; 40% n-BuOH/Anisole (v/v)): 101.4 °C
Dissolution Temp. ([2]; Anisole): >110° ° C.
Dissolution Temp. ([2]; DMAc): >110° ° C.
Dissolution Temp. ([2]; DMF): >110° ° C.
Dissolution Temp. ([2]; DMSO): >110° ° C.
Dissolution Temp. ([2]; NMP): 97.9 °C
Dissolution Temp. ([2]; n-BuOH): >110° ° C.
Dissolution Temp. ([2]; n-Butyl acetate): >110° ° C.
chemical stability in solution (impurity peak by UPLC/MS) [3]: degradation occurred
Particle size D [4, 3] ([4]; 0.2 Bar ASPIROS dispersion): 21.33 μm
Particle size D [v, 0.1] ([4]; 0.2 Bar ASPIROS dispersion): 5.21 μm
Particle size D [v, 0.5] ([4]; 0.2 Bar ASPIROS dispersion): 17.00 μm
Particle size D [v, 0.9] ([4]; 0.2 Bar ASPIROS dispersion): 43.59 μm
D90 ([4]; Table 11): approximately 45 μm
MASS Punch profile (sticking propensity) [5]: positive response
size of hard agglomerates [6]: approximately 500 microns
SMILES: CC(=O)c1c(C)c2cnc(Nc3ccc(N4CCNCC4)cn3)nc2n(C2CCCC2)c1=O [compound 1, 6-acetyl-8-cyclopentyl-5-methyl-2-(5-piperazin-1-yl-pyridin-2-ylamino)-8H-pyrido[2,3-d]pyrimidin-7-one]
Results of recrystallization ([1]; Anisole): large particles (lathes or tomahawk shape)
bioavailability in animal studies [7]: low
